Results as given in patent US20060223837A1 (priority 2005, published 2006).
pIC50, pKi: −log10 of the molar value.

Columns and labels:
[1] = test system: dextran sulfate induced colitis; conditions: animal model; cited from earlier work
[2] = test system: CFA-induced mechanical hyperalgesia; conditions: literature; cited from earlier work
neuropathic pain = conditions: chronic constriction injury rodent neuropathic pain model; cited from earlier work
human VR1 [3] = target: T1, human VR1 (Homo sapiens, UniProt Q8NER1); experiment: Human VR1 [3H]RTX binding assay; conditions: [3H]RTX binding, HEK293 membranes
T1 construct: expressed in transfected cells; host or cells: HEK293
Summary of the method: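 Membranes from human VR1-transfected HEK293 cells (~120 μg protein/ml) incubated with [3H]RTX in HEPES pH 7.4 with 0.25 mg/mL BSA, 37 C, 60 min. Bound counts by scintillation after α-acid glycoprotein and centrifugation; nonspecific defined with 200 nM unlabelled RTX. Ki from duplicate means.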

human VR1 [4] = target: T1, human VR1; experiment: Human VR1 functional assay (FLIPR intracellular Ca2+); assay type: cell-based; conditions: for pIC50: antagonism of capsaicin-induced Ca2+ increase, read-out: h IC50; for inhibition at 5 µM: read-out: h % I (5 μM); for inhibition at 1 µM: read-out: h % I (1 μM)
Summary of the method: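 HEK293 cells expressing human VR1, loaded with Calcium 3 dye, were exposed to test compounds for 5 min while FLIPR recorded intracellular Ca2+, then challenged with capsaicin at ~80% maximal response ([…]). EC50 or IC50 came from dose-response curves on quadruplicate-well means.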

chronic arthritis = conditions: tail vein model; cited from earlier work
cough = conditions: capsaicin and citric acid induced cough, guinea pig; cited from earlier work
[5] = inhibition of capsaicin response, 5 μM
[6] = inhibition of capsaicin response

T1 sequence (Q8NER1 whole entry): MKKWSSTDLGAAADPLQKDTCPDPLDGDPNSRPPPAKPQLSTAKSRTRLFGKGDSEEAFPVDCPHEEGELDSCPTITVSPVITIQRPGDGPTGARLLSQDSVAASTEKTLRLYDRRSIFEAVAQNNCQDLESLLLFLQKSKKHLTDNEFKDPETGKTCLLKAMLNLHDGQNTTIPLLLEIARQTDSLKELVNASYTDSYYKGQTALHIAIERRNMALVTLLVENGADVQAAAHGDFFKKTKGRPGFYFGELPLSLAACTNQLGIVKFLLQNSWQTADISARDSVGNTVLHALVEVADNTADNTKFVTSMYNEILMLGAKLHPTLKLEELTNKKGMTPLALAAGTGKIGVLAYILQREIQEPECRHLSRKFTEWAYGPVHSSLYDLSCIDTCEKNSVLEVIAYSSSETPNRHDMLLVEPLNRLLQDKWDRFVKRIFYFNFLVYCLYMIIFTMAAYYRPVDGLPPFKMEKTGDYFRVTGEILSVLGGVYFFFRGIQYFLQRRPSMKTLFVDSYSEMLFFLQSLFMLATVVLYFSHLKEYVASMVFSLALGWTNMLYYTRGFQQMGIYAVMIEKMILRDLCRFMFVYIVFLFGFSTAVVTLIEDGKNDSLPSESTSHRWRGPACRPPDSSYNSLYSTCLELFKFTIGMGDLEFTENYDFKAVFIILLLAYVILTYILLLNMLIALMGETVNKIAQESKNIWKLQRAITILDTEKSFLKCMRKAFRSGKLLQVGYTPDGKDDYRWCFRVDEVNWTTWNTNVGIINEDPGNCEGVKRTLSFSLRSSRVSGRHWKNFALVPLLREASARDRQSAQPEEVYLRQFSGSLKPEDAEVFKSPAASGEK

| Compound | pKi (human VR1 [3]) | pIC50 (human VR1 [4]) | inhibition at 5 µM (human VR1 [4]; [5]) [%] | inhibition at 1 µM (human VR1 [4]; [6]) [%] | also measured |
| --- | --- | --- | --- | --- | --- |
| Nc1ccc(O)c(C(=O)O)c1 [5-ASA] |  |  |  |  | protection against colitis [1]: protects against dextran sulfate induced colitis |
| CC(C)(C)c1ccc(NC(=O)N2CCN(c3ncccc3Cl)CC2)cc1 [BCTC] |  |  |  |  | effect on hyperalgesia [2]: reduced hyperalgesia; effect on mechanical hyperalgesia and tactile allodynia (neuropathic pain): reduced mechanical hyperalgesia and tactile allodynia |
| Cc1cc(NC(=O)CCc2ccc(C(C)(C)C)cc2)cnc1-n1cnc(Cl)c1Cl [Cpd 215] | 8.13 | 7.13 | 100 |  |  |
| CC(=O)Nc1cccc(-c2ncc(NC(=O)CCc3ccc(C(C)(C)C)cc3)cc2C)c1 [Cpd 216] | 7.15 | 7.12 | 99 |  |  |
| O=C(/C=C/c1ccc(S(=O)(=O)C(F)(F)F)cc1)Nc1ccc(-n2cnc(Cl)c2Cl)c(C(F)(F)F)c1 [Cpd 217] | 7.32 | 7.06 |  | 101 |  |
| O=C(CCc1ccc(C(F)(F)F)cc1)Nc1ccc(-n2cnc(Cl)c2Cl)c(C(F)(F)F)c1 [Cpd 218] | 7.70 | 7.01 | 101 |  |  |
| O=C(CCc1ccc(C(F)(F)F)cc1)Nc1ccc(-c2ccncc2)c(C(F)(F)F)c1 [Cpd 220] | 7.00 | 6.92 | 100 |  |  |
| O=C(CCc1ccc(C(F)(F)F)cc1)Nc1cnc(-c2ccc(O)cc2)c(C(F)(F)F)c1 [Cpd 221] | 7.24 | 6.90 | 100 |  |  |
| O=C(CCc1ccc(C(F)(F)F)cc1)Nc1ccc(-c2ccc(CO)cc2)c(C(F)(F)F)c1 [Cpd 223] | 7.08 | 6.85 |  |  | h % I (5 μM) (human VR1 [4]; [5]): 100% |
| CC(C)(C)c1ccc(CCC(=O)Nc2cnc(-n3cnc(Cl)c3Cl)c(C(F)(F)F)c2)cc1 [Cpd 224] | 7.74 | 6.83 | 101 |  |  |
| O=C(CCc1ccc(C(F)(F)F)cc1)Nc1cnc(-c2ccc(CO)cc2)c(C(F)(F)F)c1 [Cpd 225] | 6.79 | 6.82 | 100 |  |  |
| Cc1cn(-c2ncc(NC(=O)CCc3ccc(C(F)(F)F)cc3)cc2C)cn1 [Cpd 226] | 6.12 | 6.79 |  | 83 |  |
| O=C(CCc1ccc(C(F)(F)F)cc1)Nc1ccc(-n2cnc(Cl)c2)c(C(F)(F)F)c1 [Cpd 227, N-[4-(4-Chloro-imidazol-1-yl)-3-trifluoromethyl-phenyl]-3-(4-trifluoromethyl-phenyl)-propionamide] | 7.04 | 6.77 |  | 100 |  |
| O=C(/C=C/c1ccc(SC(F)(F)F)cc1)Nc1ccc(-n2cnc(Cl)c2Cl)c(C(F)(F)F)c1 [Cpd 228] | 7.38 | 6.77 |  | 92 |  |
| O=C(CCc1ccc(C(F)(F)F)cc1)Nc1ccc(-c2ccc(O)cc2)c(C(F)(F)F)c1 [Cpd 229] | 7.00 | 6.71 | 100 |  |  |
| O=C(CCc1ccc(Cl)cc1)Nc1ccc(-c2ccncc2)c(C(F)(F)F)c1 [Cpd 230] | 5.99 | 6.69 | 101 |  |  |
| O=C(CCc1ccc(Cl)cc1)Nc1ccc(-n2cnc(Cl)c2Cl)c(C(F)(F)F)c1 [Cpd 231] | 7.58 | 6.62 |  | 90 |  |
| Cc1cc(NC(=O)CCc2ccc(N(C)C3CCCCC3)cc2)cnc1-n1cnc(Cl)c1Cl [Cpd 232] | 7.10 | 6.60 |  | 99 |  |
| Cc1cn(-c2ccc(NC(=O)CCc3ccc(C(F)(F)F)cn3)cc2C(F)(F)F)cn1 [Cpd 233, N-[4-(4-Methyl-imidazol-1-yl)-3-trifluoromethyl-phenyl]-3-(5-trifluoromethyl-pyridin-2-yl)-propionamide] | 6.00 | 6.59 |  | 98 |  |
| Cc1cc(NC(=O)CCc2ccc(Cl)cc2)cnc1-n1cnc(Cl)c1Cl [Cpd 234] | 7.07 | 6.54 |  | 88 |  |

| Compound | pKi (human VR1 [3]) | pIC50 (human VR1 [4]) | inhibition at 5 µM (human VR1 [4]; [5]) [%] | inhibition at 1 µM (human VR1 [4]; [6]) [%] | also measured |
| --- | --- | --- | --- | --- | --- |
| O=C(CCc1ccc(C(F)(F)F)cc1)Nc1cnc(-n2ccnc2)c(C(F)(F)F)c1 [Cpd 240] | 5.41 | 6.42 | 101 |  |  |
| Cc1cc(NC(=O)/C=C/c2ccc(N(C)C3CCCCC3)cc2)cnc1-n1cnc(Cl)c1Cl [Cpd 241, trans-3-[4-(Cyclohexyl-methyl-amino)-phenyl]-N-[6-(4,5-dichloro-imidazol-1-yl)-5-methyl-pyridin-3-yl]-acrylamide] | 7.10 | 6.40 |  | 92 |  |
| O=C(CCc1ccc(Cl)cc1)Nc1ccc(-n2ccnc2)c(C(F)(F)F)c1 [Cpd 242] | 5.68 | 6.40 |  | 76 |  |
| O=C(CCc1ccc(C(F)(F)F)cc1)Nc1ccc(C2=NOS(=O)N2)c(C(F)(F)F)c1 (centres unmarked) [Cpd 245, N-[4-(2-Oxo-2,3-dihydro-2λ^4-[1,2,3,5]oxathiadiazol-4-yl)-3-trifluoromethyl-phenyl]-3-(4-trifluoromethyl-phenyl)-propionamide] | 6.01 | 6.31 | 9 | 70 |  |
| Cc1cc(NC(=O)CCc2ccc(C(C)(C)C)cc2)cnc1-c1cccc(C#N)c1 [Cpd 246] | 6.43 | 6.27 | 105 |  |  |
| O=C(CCc1ccc(C(F)(F)F)cc1)Nc1ccc(-c2ccc(CO)cc2)c(C(F)(F)F)c1 [Cpd 250] | 6.70 | 6.14 | 100 |  |  |
| O=C(CCc1ccc(C(F)(F)F)cc1)Nc1cnc(-n2cnc(Cl)c2Cl)c(C(F)(F)F)c1 [Cpd 251] | 6.87 | 6.14 | 101 |  |  |
| O=C(CCc1ccccc1)Nc1ccc(-c2ccncc2)c(C(F)(F)F)c1 [Cpd 252] | 5.27 | 6.05 | 100 |  |  |
| O=C(CCc1ccc(C(F)(F)F)cc1)Nc1ccc(-n2cnc3ccccc32)c(C(F)(F)F)c1 [Cpd 253] | 7.35 | 6.02 |  | 52 |  |
| O=C(CCc1ccc(C(F)(F)F)cc1)Nc1ccc(-c2ccnc(F)c2)c(C(F)(F)F)c1 [Cpd 254] | 6.53 | 6.00 | 98 |  |  |
| O=C(CCc1ccc(C(F)(F)F)cc1)Nc1cnc(-c2ccncc2)c(C(F)(F)F)c1 [Cpd 255] | 6.48 |  | 100 |  |  |
| O=C(CCc1ccc(C(F)(F)F)cc1)Nc1ccc(-c2cccnc2F)c(C(F)(F)F)c1 [Cpd 258] | 6.30 |  | 93 |  |  |
| Cc1cc(NC(=O)CCc2ccc(C(C)(C)C)cc2)cnc1-c1cccc([N+](=O)[O-])c1 [Cpd 260] | 6.41 |  | 93 |  |  |
| O=C(CCc1ccc(C(F)(F)F)cc1)Nc1ccc(-n2cnc(Cl)c2Cl)cc1 [Cpd 263] | 7.07 |  | 67 |  |  |
| Cc1cn(-c2ccc(NC(=O)/C=C/c3ccc(C(F)(F)F)cn3)cc2C(F)(F)F)cn1 [Cpd 277] | 6.85 |  |  | 38 |  |
| O=C(O)Cc1ccccc1Nc1c(Cl)cccc1Cl [diclofenac] |  |  |  |  | effect on hyperalgesia [2]: reversed the hyperalgesic effect of zymosan; pain relief (chronic arthritis): partially effective |
| COc1ccc2c(c1)c(CC(=O)O)c(C)n2C(=O)c1ccc(Cl)cc1 [indomethacin] |  |  |  |  | pain relief (chronic arthritis): partially effective |
| C=C(C)[C@]12C[C@@H](C)[C@@]34O[C@](Cc5ccccc5)(O[C@@H]1[C@@H]3C=C(COC(=O)Cc1cc(I)c(O)c(OC)c1)C[C@]1(O)C(=O)C(C)=C[C@@H]41)O2 [iodo-resiniferatoxin] |  |  |  |  | antitussive action (cough): antitussive action |
| CN1CC[C@]23c4c5ccc(O)c4O[C@H]2[C@@H](O)C=C[C@H]3[C@H]1C5 [morphine] |  |  |  |  | pain relief (chronic arthritis): fully relieved pain |
| COc1cccc(C2(O)CCCCC2CN(C)C)c1 (centres unmarked) [tramadol] |  |  |  |  | pain relief (chronic arthritis): fully relieved pain |
